Data published in patent US10487078B2, “Compositions and methods of targeting mutant K-RAS” (NantBio, Inc., priority 2015, dated 2019).
Like-named read-outs stand apart in the source and are kept apart here.

Experiments:
K-ras G12D = K-ras G12D (Homo sapiens, UniProt P01116, G12D); assay: G-LISA Ras activation assay, 293H cells transfected with G12D mutant; format: cell-based; details: 1 hour treatment
Protocol: (§1) 293H cells were seeded in 6-wells at 0.6×10^6 cells per well and transfected next day with 5 μg of Ras wild-type, or G12C, G12D or G12V mutant DNA plasmid vector using transfection reagent Lipofectamine 3000. Next day cells were treated with 3.125-50 μM of Ras compounds for 1 hour. Wild-type transfected cells were subsequently treated with 100 ng/ml EGF for 2 minutes. Cells were washed once in ice-cold PBS, lysed in complete lysis buffer on ice, and processed by G-LISA according to Cytoskeleton protocol.
(§2) In-cell selectivity of the compounds presented herein against a specific K-ras mutant form can also be tested as shown in the following exemplary experiment. 293H cells were seeded in 6-wells and transfected next day with 5 μg of Ras wild-type, or G12C, G12D or G12V mutant DNA plasmid vector. Next day cells were treated with 3.125-50 μM of Ras compounds for 1 hour. Wild-type transfected cells were subsequently treated with 100 ng/ml EGF for 2 minutes. Cells were washed once in ice-cold PBS, lysed in complete lysis buffer on ice, and processed by G-LISA according to Cytoskeleton protocol. FIG. 1 depicts exemplary results.
as §1, with “In still further experiments, the inventors tested selected compounds in a G-LISA assay to compare IC50 values for wild-type and various mutant K-Ras (G12D, G12V) using the following general protocol: 293H” for “293H”

K-ras G12V (GTP) = K-ras G12V (GTP) (Homo sapiens, UniProt P01116, G12V); assay: SPR assay (surface plasmon resonance); format: binding; details: 25° C., 8% DMSO
Protocol: (§3) Selected compounds were also tested for selective binding to wild type and mutant forms of K-ras in the active and non-active state using surface plasmon resonance, and exemplary results are shown in Table 4.
(§4) The running buffer in all surface plasmon resonance experiments was 10 mM HEPES pH 7.4, 150 mM NaCl, 0.1% (v/v) Tween-20, 1 mM MgCl2, 8% DMSO. Experiments were carried out on the SensiQ Pioneer optical biosensor. The flow rate was set at 50 μL/min and the temperature was 25° C. kRAS protein was immobilized to the Nickel-NTA charged surface of the SensiQ HisCap chip (sensiqtech.com) giving a yield of 4000 RU. Small molecules were prepared in 100% DMSO and further diluted to 8% DMSO in running buffer. The small molecules were injected using the Taylor diffusion gradient injection mode (OneStep®, see e.g., Evaluation of Taylor dispersion injections: Determining kinetic/affinity interaction constants and diffusion coefficients in label-free biosensing, John G. Quinn, Analytical Biochemistry (2011)). Buffer blanks were injected for double referencing purposes. Data processing and model fitting were performed using Qdat.

K-ras G12V = K-ras G12V (Homo sapiens, UniProt P01116, G12V); assay: G-LISA Ras activation assay, 293H cells transfected with G12V mutant; format: cell-based; details: 1 hour treatment
Protocol: as §1, §2
as §1, with “In still further experiments, the inventors tested selected compounds in a G-LISA assay to compare IC50 values for wild-type and various mutant K-Ras (G12D, G12V) using the following general protocol: 293H” for “293H”

K-Ras wild-type = K-Ras wild-type (Homo sapiens, UniProt P01116); assay: G-LISA Ras activation assay, 293H cells transfected with Ras wild-type, EGF-stimulated; format: cell-based; details: 1 hour treatment, 100 ng/ml EGF
Protocol: as §1, §2
as §1, with “In still further experiments, the inventors tested selected compounds in a G-LISA assay to compare IC50 values for wild-type and various mutant K-Ras (G12D, G12V) using the following general protocol: 293H” for “293H”

K-ras G12D (GTP) = K-ras G12D (GTP) (Homo sapiens, UniProt P01116, G12D); assay: SPR assay (surface plasmon resonance); format: binding; details: 25° C., 8% DMSO
Protocol: as §3, §4

Panc1 (G12D) cells = assay: 72 hr cell viability (CellTiterBlue); format: cell-based; details: GI50, 72 hr
Protocol: (§5) Viability assays were performed on exemplary compounds and Table 2 below lists exemplary results for selected compounds tested on wild type (Ishikawa) and various K-ras mutants (Panc1-G12D; Panc10.05-G12D; HCT116-G13D).
(§6) Cells are counted and seeded at 1000 cells/36 ul medium/well into 384-well microplates. Cells are returned to 37° C. CO2 incubator for 18 hr. Drug is made as 200× in DMSO and diluted into medium to 10×. To each well is added 4 ul 10× drug, and plates are returned to the incubator. Final assay DMSO concentration is 0.5%. After 72 hr, 8 ul CellTiterBlue (Promega) is added to each well. After 3 hr, fluorescence (Ex550/Em590) is determined on the Victor Plate Reader (Perkin Elmer). Assay range is determined by DMSO control (100% viability) and 100 uM tamoxifen (0% viability). GI50 values are calculated using Graphpad Prism.

Panc10.05 (G12D) cells = assay: 72 hr cell viability (CellTiterBlue); format: cell-based; details: GI50, 72 hr
Protocol: as §5, §6

[1] = test system: Akt phosphorylation in Panc1 (G12D) cells; assay: In-Cell Western Akt phosphorylation; format: cell-based; details: EC50, one hour treatment; read-out: In-Cell Western Akt phosporylation Panc1 (G12D)
Protocol: (§7) In-cell phosphorylation assays for Erk and Akt were performed on various of the compounds and exemplary results are shown in Table 3 below using […] and Panc10.05 cell lines for G12D K-ras mutants.
(§8) Cells are seeded in complete medium into black sided, clear-bottom 384-well microplates at 3000 cells/[…]/well. Plates are returned to 37° C. CO2 incubator for 18 hr. Drug is made as 200× in DMSO and diluted into medium to 10×. To each well is added 4 ul 10× test article or controls, and plates are returned to the incubator. Final assay DMSO concentration is 0.5%. After one hour, cells are fixed in formaldehyde, rinsed & permeabilized with triton X-100, and blocked with BSA/Goat serum blocking solution. Primary phospho-Akt and phospho-ERK antibodies are added and plates are incubated overnight at 4° C. Plates are rinsed with Tween-20 wash buffer and secondary antibody (Goat anti-rabbit, Thermofisher) is added. After 2 hours, plates are rinsed in Tween-20 wash buffer, and then PBS. Plates are imaged on the Celigo (Nexcelom) and cellular fluorescence is quantitated. Full inhibition of phospho-Akt is achieved with 1 uM BEZ235 (Sellekchem), while full inhibition of phospho-ERK is achieved with 1 uM MEK Inhibitor II Calbiochem). EC50 values are calculated using Graphpad Prism.

[2] = test system: Akt phosphorylation in Panc10.05 (G12D) cells; assay: In-Cell Western Akt phosphorylation; format: cell-based; details: EC50, one hour treatment; read-out: In-Cell Western Akt phosporylation Panc10.05 (G12D)
Protocol: as §7, §8

[3] = test system: Erk phosphorylation in Panc1 (G12D) cells; assay: In-Cell Western Erk phosphorylation; format: cell-based; details: EC50, one hour treatment; read-out: In-Cell Western Erk phosporylation Panc1 (G12D)
Protocol: as §7, §8

[4] = test system: Erk phosphorylation in Panc10.05 (G12D) cells; assay: In-Cell Western Erk phosphorylation; format: cell-based; details: EC50, one hour treatment; read-out: In-Cell Western Erk phosporylation Panc10.05 (G12D)
Protocol: as §7, §8

[5] = test system: Ishikawa (K-Ras wild-type) cells; assay: 72 hr cell viability (CellTiterBlue); format: cell-based; details: GI50, 72 hr
Protocol: as §5, §6

HCT116 (G13D) cells = assay: 72 hr cell viability (CellTiterBlue); format: cell-based; details: GI50, 72 hr
Protocol: as §5, §6

[6] = Table 1, G-LISA, 293H transfected, read-out: IC50 (μM) G12D
[7] = Table 5, IC50, 293H transfected, read-out: G-LISA (G12D)
[8] = Table 1, G-LISA, 293H transfected, read-out: IC50 (μM) G12V
[9] = Table 5, IC50, 293H transfected, read-out: G-LISA (G12V)
[10] = Table 1, G-LISA, 293H transfected, read-out: IC50 (μM) Wild-type
[11] = Table 5, IC50, 293H transfected, read-out: G-LISA (wild type)

Row | SPR Assay G12V (GTP) Kd (K-ras G12V (GTP)) | Kd (K-ras G12D (GTP)) [µM] | SPR Assay G12D (GTP) Rmax (K-ras G12D (GTP)) | Kd (K-ras G12V (GTP)) [µM] | SPR Assay G12V (GTP) Rmax (K-ras G12V (GTP)) | Structure (SMILES) | IC50 (K-ras G12D; [6]) [µM] | IC50 (K-ras G12D; [7]) [µM] | IC50 (K-ras G12V; [8]) [µM] | IC50 (K-ras G12V; [9]) [µM] | IC50 (K-Ras wild-type; [10]) [µM] | IC50 (K-Ras wild-type; [11]) [µM] | IC50 (Panc1 (G12D) cells) [µM] | IC50 (Panc10.05 (G12D) cells) [µM] | EC50 [1] [µM] | EC50 [2] [µM] | EC50 [3] [µM] | EC50 [4] [µM] | IC50 [5] [µM] | IC50 (HCT116 (G13D) cells) [µM]
1 | No binding/fit | – | – | – | – | CC(=O)Nc1ccc(-c2csc(NC(=O)c3sc(C)nc3C)n2)cc1 [Compound 4663] | 15 | > 25 | 32 | 32 | 7 | 7 | – | – | – | – | – | – | – | –
2 | – | 4.8 | Rmax = 8.73 | 36.8 | Rmax = 143 ± 1 | Cc1nc(C)c(C(=O)Nc2nc(-c3ccc4c(c3)CCC(=O)O4)cs2)s1 [Compound 4664] | > 25 | > 25 | – | – | – | – | – | – | – | – | – | – | – | –
3 | – | 27.2 | Rmax = 389 ± 1 | 15.2 | Rmax = 57.1 ± 0.2 | O=C1CCc2cc(-c3csc(NC(=O)c4scnc4-c4ccccc4)n3)ccc2N1 [Compound 4800] | > 25 | > 25 | – | – | – | – | – | – | – | – | – | – | – | –
4 | – | – | – | – | – | Cc1nc(C)c(CNc2nc(-c3ccc4c(c3)CCC(=O)N4)cs2)s1 [Compound 4856] | > 25 | – | – | – | – | – | ≥ 25 | ≥ 25 | > 25 | > 25 | 7 | 19 | – | –
5 | – | – | – | – | – | Cc1ccccc1C(=O)Nc1nc(-c2ccc3c(c2)CCC(=O)N3)cs1 [Compound 4874] | 16 | 16 | – | – | – | – | 12 | – | 25 | > 25 | > 25 | 14 | 3 | –
6 | – | – | – | – | – | COCc1nc(C)c(C(=O)Nc2nc(-c3ccc4c(c3)CCC(=O)N4)cs2)s1 [Compound 4876] | – | – | – | – | – | – | 13 | – | 20 | > 25 | 9 | 17 | 3 | –
7 | – | – | – | – | – | Cc1nc(C2CC2)sc1C(=O)Nc1nc(-c2ccc3c(c2)CCC(=O)N3)cs1 [Compound 4877] | 6 | 6 | 9 | 9 | 16 | 16 | 5 | – | 7 | 17 | 3 | 3 | 1.2 | –
8 | – | – | – | – | – | Cc1nc(-c2ccccc2)sc1C(=O)Nc1nc(-c2ccc3c(c2)CCC(=O)N3)cs1 [Compound 4878] | 19 | 19 | > 25 | > 25 | – | – | 7 | – | 26 | > 25 | 19 | 13 | 5 | –
9 | – | – | – | – | – | Cc1nc(C)c(C(=O)Nc2nc(-c3ccc4c(c3)CCC(=O)N4Cc3ccccc3)cs2)s1 [Compound 4888] | 6 | 6 | 14.5 | 14.5 | 11.3 | 11.3 | 9 | 4 | 5 | 3 | 4 | 2 | 5 | 7
10 | – | – | – | – | – | Cc1nc(C)c(C(=O)N(Cc2ccccc2)c2nc(-c3ccc4c(c3)CCC(=O)N4Cc3ccccc3)cs2)s1 [Compound 4889] | – | – | – | – | – | – | ≥ 25 | ≥ 25 | > 25 | > 25 | > 25 | > 25 | 14 | 21
11 | – | – | – | – | – | CCc1nc(C)c(C(=O)Nc2nc(-c3ccc4c(c3)CCC(=O)N4)cs2)s1 [Compound 4891] | 5 | – | 9.3 | – | 11.5 | – | 11 | 4 | 7 | 3 | 2 | 2 | 12 | 13
12 | – | – | – | – | – | Cc1nc(C2CCOC2)sc1C(=O)Nc1nc(-c2ccc3c(c2)CCC(=O)N3)cs1 (stereo not shown) [Compound 4892] | 6.5 | – | – | – | – | – | 17 | 6 | 12 | 6 | 5 | 2 | 14 | 14
13 | – | – | – | – | – | Cc1nc(Cc2ccccn2)sc1C(=O)Nc1nc(-c2ccc3c(c2)CCC(=O)N3)cs1 [Compound 4893] | – | – | – | – | – | – | ≥ 25 | ≥ 25 | > 25 | > 25 | > 25 | > 25 | ≥ 25 | ≥ 25
14 | – | – | – | – | – | Cc1nc(-n2ccnc2)sc1C(=O)Nc1nc(-c2ccc3c(c2)CCC(=O)N3)cs1 [Compound 4894] | – | – | – | – | – | – | ≥ 25 | ≥ 25 | > 25 | > 25 | > 25 | > 25 | ≥ 25 | ≥ 25
15 | – | – | – | – | – | Cc1nc(N2CCOCC2)sc1C(=O)Nc1nc(-c2ccc3c(c2)CCC(=O)N3)cs1 [Compound 4895] | – | – | – | – | – | – | ≥ 25 | ≥ 25 | > 25 | > 25 | > 25 | > 25 | ≥ 25 | ≥ 25
16 | – | – | – | – | – | COCCOc1nc(C)c(C(=O)Nc2nc(-c3ccc4c(c3)CCC(=O)N4)cs2)s1 [Compound 4896] | – | – | – | – | – | – | ≥ 25 | ≥ 25 | 14 | 12 | 8 | 8 | 19 | 22
